According to ChEMBL document CHEMBL4321839, “Structure-activity relationships (SAR) of triazine derivatives: Promising antimicrobial agents” (Eur J Med Chem, 2020):
pIC50: −log10 of the molar value. Values after ≈ are worked out from the molar mass of the structure shown. One block for each molecule: values may come before it.

Experiments:
[1] = test system: Pseudomonas aeruginosa; assay: Antimicrobial activity against Pseudomonas aeruginosa […] assessed as zone of inhibition at 10 mg/ml by Kirby-Bauer disk diffusion method; format: functional; conditions: read-out: IZ
[2] = test system: Micrococcus luteus; assay: Antimicrobial activity against Micrococcus luteus ATCC 10240 assessed as zone of inhibition at 10 mg/ml by Kirby-Bauer disk diffusion method; format: functional; conditions: read-out: IZ
[3] = test system: Aspergillus niger; assay: Antifungal activity against Aspergillus niger MTCC 282 assessed as reduction in microbial growth after 48 hrs by broth dilution method; format: functional; conditions: MTCC 282, 48 h
[4] = test system: Pseudomonas aeruginosa; assay: Antimicrobial activity against Pseudomonas aeruginosa MTCC 741 assessed as reduction in microbial growth after 24 hrs by broth dilution method; format: functional; conditions: MTCC 741, 24 h
[5] = test system: Helicobacter pylori; assay: Antimicrobial activity against Helicobacter pylori assessed as zone of inhibition; format: functional
[6] = test system: Escherichia coli; assay: Antimicrobial activity against Escherichia coli after 24 hrs by agar well diffusion assay; format: functional
[7] = test system: Escherichia coli; assay: Antimicrobial activity against Escherichia coli assessed as zone of inhibition after 18 hrs by disk diffusion method; format: functional
[8] = test system: Proteus mirabilis; assay: Antimicrobial activity against Proteus mirabilis assessed as zone of inhibition after 18 hrs by disk diffusion method; format: functional
[9] = test system: Bacillus cereus; assay: Antimicrobial activity against Bacillus cereus NCIM-2156 assessed as reduction in microbial growth after 24 hrs by CLSI based broth dilution method; format: functional; conditions: NCIM-2156, 24 h
[10] = test system: Escherichia coli; assay: Antimicrobial activity against Escherichia coli NCIM-2065 assessed as reduction in microbial growth after 24 hrs by CLSI based broth dilution method; format: functional; conditions: NCIM-2065, 24 h
[11] = test system: Bacillus subtilis; assay: Antimicrobial activity against Bacillus subtilis NCIM-2063 assessed as reduction in microbial growth after 24 hrs by CLSI based broth dilution method; format: functional; conditions: NCIM-2063, 24 h
[12] = test system: Staphylococcus aureus; assay: Antimicrobial activity against Staphylococcus aureus NCIM-2079 assessed as reduction in microbial growth after 24 hrs by CLSI based broth dilution method; format: functional; conditions: NCIM-2079, 24 h
[13] = test system: Proteus vulgaris; assay: Antimicrobial activity against Proteus vulgaris NCIM-2027 assessed as reduction in microbial growth after 24 hrs by CLSI based broth dilution method; format: functional; conditions: NCIM-2027, 24 h
[14] = test system: Staphylococcus aureus; assay: Antimicrobial activity against Staphylococcus aureus assessed as zone of inhibition at 1000 to 10000 ppm after 48 hrs; format: functional
[15] = test system: Candida albicans; assay: Antifungal activity against Candida albicans MTCC 183 assessed as reduction in microbial growth after 48 hrs by broth dilution method; format: functional; conditions: MTCC 183, 48 h
[16] = test system: Bacillus cereus; assay: Antimicrobial activity against Bacillus cereus MTCC 430 assessed as reduction in microbial growth after 24 hrs by broth dilution method; format: functional; conditions: MTCC 430, 24 h
[17] = test system: Staphylococcus aureus; assay: Antimicrobial activity against Staphylococcus aureus MTCC 96 assessed as reduction in microbial growth after 24 hrs by broth dilution method; format: functional; conditions: MTCC 96, 24 h
[18] = test system: Staphylococcus aureus; assay: Antimicrobial activity against methicillin-resistant Staphylococcus aureus CCARM 3089 assessed as reduction in microbial growth incubated for 18 to 24 hrs by two-fold serial dilution method; format: functional
[19] = test system: Enterococcus faecium; assay: Antimicrobial activity against vancomycin-resistant Enterococcus faecium ATCC 51559 assessed as reduction in microbial growth incubated for 18 to 24 hrs by two-fold serial dilution method; format: functional
[20] = test system: Staphylococcus aureus; assay: Antimicrobial activity against methicillin-resistant Staphylococcus aureus CCARM 3090 assessed as reduction in microbial growth incubated for 18 to 24 hrs by two-fold serial dilution method; format: functional
[21] = test system: Pseudomonas aeruginosa; assay: Antimicrobial activity against multi drug-resistant Pseudomonas aeruginosa CCARM 2109 assessed as reduction in microbial growth incubated for 18 to 24 hrs by two-fold serial dilution method; format: functional
[22] = test system: Staphylococcus aureus; assay: Antimicrobial activity against methicillin-resistant Staphylococcus aureus CCARM 3095 assessed as reduction in microbial growth incubated for 18 to 24 hrs by two-fold serial dilution method; format: functional
[23] = test system: Pseudomonas aeruginosa; assay: Antimicrobial activity against multi drug-resistant Pseudomonas aeruginosa CCARM 2095 assessed as reduction in microbial growth incubated for 18 to 24 hrs by two-fold serial dilution method; format: functional
[24] = test system: Staphylococcus aureus; assay: Antimicrobial activity against methicillin-resistant Staphylococcus aureus CCARM 3506 assessed as reduction in microbial growth by serial dilution method; format: functional
[25] = test system: Staphylococcus aureus; assay: Antimicrobial activity against quinolone-resistant Staphylococcus aureus CCARM 3505 assessed as reduction in microbial growth by serial dilution method; format: functional
[26] = test system: Staphylococcus aureus; assay: Antimicrobial activity against methicillin-resistant Staphylococcus aureus CCARM 3167 assessed as reduction in microbial growth by serial dilution method; format: functional
[27] = test system: HepG2; assay: Cytotoxicity against human HepG2 cells; format: cell-based
[28] = test system: Staphylococcus aureus; assay: Antimicrobial activity against quinolone-resistant Staphylococcus aureus CCARM 3519 assessed as reduction in microbial growth by serial dilution method; format: functional
[29] = test system: Aspergillus clavatus; assay: Antifungal activity against Aspergillus clavatus MTCC 1323 assessed as reduction in microbial growth after 48 hrs by broth dilution method; format: functional; conditions: MTCC 1323, 48 h
[30] = test system: Bacillus cereus; assay: Antibacterial activity against Bacillus cereus NCIM-2458 assessed as reduction in microbial growth incubated for 24 hrs by broth dilution method; format: functional; conditions: NCIM-2458, 24 h
[31] = test system: Lacticaseibacillus casei; assay: Antibacterial activity against Lactobacillus casei NCIM-2651 assessed as reduction in microbial growth incubated for 24 hrs by broth dilution method; format: functional; conditions: NCIM-2651, 24 h
[32] = test system: Staphylococcus aureus; assay: Antimicrobial activity against methicillin-resistant Staphylococcus aureus MW2 assessed as reduction in microbial growth after 18 hrs by broth microdilution method; format: functional; conditions: MW2, 18 h
[33] = test system: Enterococcus faecium; assay: Antimicrobial activity against Enterococcus faecium ATCC E007 assessed as reduction in microbial growth after 18 hrs by broth microdilution method; format: functional; conditions: ATCC E007, 18 h

SMILES: Cc1cc(C)n(-c2nc(NCc3ccccc3)nc(N3CCCCC3)n2)n1
zone of inhibition at 10000 µg/mL [1]: 19 mm | zone of inhibition at 10000 µg/mL [2]: 22 mm

MIC [3]: 3.12 µg/mL | MIC [4]: 3.12 µg/mL
SMILES: COc1nc(Sc2cccc(F)c2)nc(-c2ccc(C#N)cc2)n1

MIC [5]: 25 µg/mL (≈ 57.2 µM)
SMILES: Nc1nc(-n2c(-c3ccc([N+](=O)[O-])cc3)nc3ccccc3c2=O)nnc1-c1ccccc1

MIC [6]: 50 µg/mL (≈ 75.5 µM)
SMILES: Clc1nc2nc(n1)Oc1ccc3ccccc3c1Cc1c(ccc3ccccc13)Oc1nc(Cl)nc(n1)OCc1cccc(n1)CO2

SMILES: CCOc1ccc(/C=N/NC(=O)Cn2c3ccccc3c3nnc(SCC(=O)CN/N=C/Cc4ccc(OCC)cc4)nc32)cc1
inhibition zone (IZ) [7]: 22 mm | inhibition zone (IZ) [8]: 22 mm

MIC [9]: 1.95 to 15.6 µg/mL | MIC [10]: 1.95 to 15.6 µg/mL | MIC [11]: 1.95 to 15.6 µg/mL | MIC [12]: 1.95 to 15.6 µg/mL | MIC [13]: 1.95 to 15.6 µg/mL
SMILES: O=C1CSC(c2ccccc2[N+](=O)[O-])N1c1nc(Nc2ccccc2[N+](=O)[O-])nc(Nc2ccccc2[N+](=O)[O-])n1 (stereo not given)

SMILES: Cc1c(C(=O)NNc2ccccc2)nnc2c3c(-c4ccccc4)c(-c4ccccc4)nnc3nn12
inhibition zone (IZ) [14]: 4 mm

MIC [15]: 3.12 µg/mL | MIC [16]: 6.25 µg/mL
SMILES: COc1nc(Sc2cccc(Cl)c2)nc(-c2ccc(C#N)cc2)n1

MIC [17]: 3.12 µg/mL
SMILES: COc1nc(Sc2ccc(F)cc2)nc(-c2ccc(C#N)cc2)n1

SMILES: N=C(N)NCCCN(CCCNC(=N)N)c1nc(NCc2cccc3ccccc23)nc(NCc2cccc3ccccc23)n1
MIC [18]: 2 µM | MIC [19]: 2 µM | MIC [20]: 2 µM | MIC [21]: 8 µM | MIC [22]: 2 µM | MIC [23]: 8 µM

SMILES: NC1=NC(c2ccc3cc(OCc4ccc(Cl)cc4Cl)ccc3c2)N=C(N2CCOCC2)N1 (stereo not given)
MIC [24]: 2.1 µM | MIC [25]: 2.1 µM | MIC [26]: 2.1 µM | pIC50 [27]: 4.46 | MIC [28]: 2.1 µM

SMILES: CC(=O)c1nnc2c3c(-c4ccccc4)c(-c4ccccc4)nnc3nn2c1C
inhibition zone (IZ) [14]: 44 mm

MIC [9]: 1.95 to 15.6 µg/mL | MIC [10]: 1.95 to 15.6 µg/mL | MIC [11]: 1.95 to 15.6 µg/mL | MIC [12]: 1.95 to 15.6 µg/mL | MIC [13]: 1.95 to 15.6 µg/mL
SMILES: O=C1CSC(c2ccc([N+](=O)[O-])cc2)N1c1nc(Nc2ccc([N+](=O)[O-])cc2)nc(Nc2ccc([N+](=O)[O-])cc2)n1 (stereo not given)

MIC [6]: 50 µg/mL (≈ 84.7 µM)
SMILES: CC1(C)c2ccccc2Oc2nc(Cl)nc(n2)OCc2cccc(n2)COc2nc(Cl)nc(n2)Oc2ccccc21

MIC [29]: 3.12 µg/mL
SMILES: COc1nc(Sc2ccc(Cl)cc2)nc(-c2ccc(C#N)cc2)n1

SMILES: O=C(CN/N=C/Cc1ccccn1)CSc1nnc2c3ccccc3n(CC(=O)N/N=C/c3ccccn3)c2n1
inhibition zone (IZ) [7]: 24 mm | inhibition zone (IZ) [8]: 24 mm

MIC [30]: 3.12 µg/mL | MIC [31]: 3.12 µg/mL
SMILES: Nc1nc(Nc2ccccc2)nc(Nc2nc(-c3ccc(Cl)c(Cl)c3)cs2)n1

SMILES: N=C(N)NCCCN(CCCNC(=N)N)c1nc(NCCC(c2ccccc2)c2ccccc2)nc(NCCC(c2ccccc2)c2ccccc2)n1
MIC [18]: 2 µM | MIC [19]: 4 µM | MIC [20]: 2 µM | MIC [21]: 4 µM | MIC [22]: 2 µM | MIC [23]: 4 µM

MIC [30]: 3.12 µg/mL | MIC [31]: 3.12 µg/mL
SMILES: Nc1nc(Nc2nc(-c3ccc(Cl)c(Cl)c3)cs2)nc(Sc2ccccc2)n1

SMILES: CC(C)(C)Nc1nc(NN)nc(NC(C)(C)C)n1
MIC [32]: 8 µg/mL | MIC [33]: 8 µg/mL
